Experimental data: patent US20250351832A1, “PHYTOCHEMICALS AS BIOPESTICIDES AND BIOSTIMULANTS” (KAY BEE BIO ORGANICS PVT. LTD., priority 2024, published 2025)
Where two headings read alike, the source gives them in different places.

What was measured:
tomato seedlings = assay: Response of tomato plants, greenhouse growth (Ex. 30); type: in vivo; details: tomato seedlings, dose 1 ml/gm/lit; for Plant Height 5th Day / Stem Girth 5th Day / CCI 5th Day: 5th day after application; for Plant Height 10th Day / Stem Girth 10th Day / CCI 10th Day: 10th day after application; for Plant Height % Increase over pre on 10th Day / Stem Girth % Increase over pre on 10th Day / CCI % Increase over pre on 10th Day / Root Length (cm) 10th Day / Root Length % Increase over control: 10th day; for Root Length % Increase over control: vs water control
chili seedlings = assay: Response of chili plants, greenhouse growth (Ex. 31); type: in vivo; details: chili seedlings, dose 1 ml/gm/lit; for CCI 5th Day / Plant Height (cm) 5th Day: 5th day after application; for CCI 10th Day / Plant Height (cm) 10th Day: 10th day after application; for CCI % Increase over pre on 10th Day / Plant Height % Increase over pre on 10th Day / Root Lenght (cm) 10th Day / Stem Girth % Increase over pre on 10th Day / Root Lenght % Increase over control: 10th day; for Root Lenght % Increase over control: vs water control
Helicoverpa armigera [1] = details: Helicoverpa armigera 3rd instar on chickpea plants, dose 1 ml/gm/lit. spray; for % Mortality at 72 Hrs.: 72 hrs after application; for % Corrected Mortality at 72 Hrs.: corrected for water control
Alternaria alternata [2] = assay: In vitro poisoned food technique against fungus (Ex. 20); type: cell-based; details: poisoned food technique, PDA medium, dose 1 ml/gm/lit., after seven days; for inhibition of growth at 1 mL or g/L: vs untreated control, read-out: % Inhibition of growth
Spodoptera litura [3] = assay: whole plant or invertebrate; details: 72 h
Mealy Bug [4] = details: mealy bug on cotton plants, green house, dose 1 ml/gm/lit. spray; for % Mortality at 48 Hrs. / Total No. of dead insect at 48 Hrs.: 48 hrs after application; for % Corrected Mortality at 48 Hrs.: corrected for water control
Thrips [5] = details: Thrips on cotton leaves; dose 1 ml/gm/lit.; 10 insects/treatment; 48 hrs after application
Spodoptera litura [6] = details: Spodoptera litura 3rd instar on cabbage plants, dose 1 ml/gm/lit. spray; for % Mortality at 72 Hrs.: 72 hrs after application; for % Corrected Mortality at 72 Hrs.: corrected for water control
Thrips [7] = details: thrips on cotton plants, greenhouse, dose 1 ml/gm/lit. spray; for % Mortality at 48 Hrs. / Total No. of dead insect at 48 Hrs.: 48 hrs after application; for % Corrected Mortality at 48 Hrs.: corrected for water control
[8] = cited from earlier work; for Phytotonic Effect: Table 13, effect on plants, descriptive
Aphid [9] = details: Dose 1 ml/gm/lit.; for Total No. of dead insect at 48 Hrs.: 10 insects/treatment, 4 replications, cotton leaves
Aphid [10] = assay: whole plant or invertebrate; details: 48 h
Helicoverpa armigera [11] = details: Helicoverpa armigera on okra fruits, dose 1 ml/gm/lit., 72 Hrs.; for Total No. of dead insect at 72 Hrs.: 10 insects/treatment, 4 replications; for % Corrected Mortality at 72 Hrs.: corrected for water control
Spodoptera litura [12] = details: Spodoptera litura on castor leaves; dose 1 ml/gm/lit.; 10 insects/treatment; 72 hrs after application
Mealy Bug [13] = details: Mealy Bug on cotton leaves, dose 1 ml/gm/lit., 48 Hrs.; for Total No. of dead insect at 48 Hrs.: 10 insects/treatment, 4 replications; for % Corrected Mortality at 48 Hrs.: corrected for water control
Mite [14] = details: mite on okra plants, green house, dose 1 ml/gm/lit. spray; for % Mortality at 48 Hrs. / Total No. of dead insect at 48 Hrs.: 48 hrs after application; for % Corrected Mortality at 48 Hrs.: corrected for water control
Thrips [15] = assay: whole plant or invertebrate; details: in Gossypium hirsutum, 48 h
Aphid [16] = details: Aphids on cotton plants, green house; dose 1 ml/gm/lit.; 10 insects/plant, 10 plants/treatment; 48 hrs
Alternaria alternata [17] = assay: Alternaria leaf spot/blight on inoculated tomato plants (Ex. 28); type: in vivo; details: tomato plants, Alternaria alternata; after 7 days; dose 1 ml/gm/lit
Mite [18] = details: Dose 1 ml/gm/lit.; for Total No. of dead insect at 48 Hrs.: 10 insects/treatment, 4 replications, okra leaves
[19] = read-out: % Corrected Mortality at 72 Hrs.
[20] = read-out: % Mortality at 72 Hrs.
[21] = Table 13, descriptive, no test described
[22] = read-out: % Corrected Mortality at 48 Hrs.
[23] = read-out: % Mortality at 48 Hrs.

## O=c1oc2c(O)c(O)cc3c(=O)oc4c(O)c(O)cc1c4c23 [Ellagic acid]
Tomato seedlings
  Plant Height 5th Day: 7.09 cm
  Stem Girth 5th Day: 1.54 mm
  Plant Height 10th Day: 8.18 cm
  Stem Girth 10th Day: 2.19 mm
  Plant Height % Increase over pre on 10th Day: 36.11%
  Stem Girth % Increase over pre on 10th Day: 62.87%
  CCI 5th Day: 13.39
  CCI % Increase over pre on 10th Day: 28.96%
  Root Length (cm) 10th Day: 4.48 cm
  CCI 10th Day: 14.56
  Root Length % Increase over control: 34.64%
Chili seedlings
  CCI 5th Day: 16.35
  Plant Height (cm) 5th Day: 5.77 cm
  CCI % Increase over pre on 10th Day: 67.49%
  Plant Height % Increase over pre on 10th Day: 62.60%
  Root Lenght (cm) 10th Day: 3.92 cm
  Stem Girth % Increase over pre on 10th Day: 51.20%
  CCI 10th Day: 16.95
  Plant Height (cm) 10th Day: 6 cm
  Root Lenght % Increase over control: 43.41%
Helicoverpa armigera [1]
  % Mortality at 72 Hrs.: 70.00%
  % Corrected Mortality at 72 Hrs.: 70.00%
Alternaria alternata [2]
  Mean colony Diameter (mm): 44.00 mm
  inhibition of growth at 1 mL or g/L: 50%
Spodoptera litura [3]; [19]
  mortality at 1 mL or g/L: 57.9%
Spodoptera litura [3]; [20]
  mortality at 1 mL or g/L: 60%
Mealy Bug [4]
  % Mortality at 48 Hrs.: 57.50%
  Total No. of dead insect at 48 Hrs.: 57.50
  % Corrected Mortality at 48 Hrs.: 52.78%
Thrips [5]
  Total No. of dead insect at 48 Hrs.: 3.50
Spodoptera litura [6]
  % Mortality at 72 Hrs.: 55.00%
  % Corrected Mortality at 72 Hrs.: 52.63%
Thrips [7]
  % Mortality at 48 Hrs.: 32.50%
  Total No. of dead insect at 48 Hrs.: 32.50
  % Corrected Mortality at 48 Hrs.: 25.00%
[8]; [21]
  Acaricidal Activity - Mode of action: Shows acaricidal activities
  Antifungal Activity - Mode of action: Fungicidal activities
  Antioxidant Activity - Mode of action: Exhibit antioxidant
  Bactericidal Activity - Mode of action: Exhibits bactericidal
  Insecticidal Activities - Mode of action: Inhibit the growth, food
[8]
  Phytotonic Effect: Reduces plant
Aphid [9]
  Total No. of dead insect at 48 Hrs.: 7.25
Aphid [9]; 48 hrs
  % Corrected Mortality at 48 Hrs.: 68.57%
  % Mortality at 48 Hrs.: 72.50%
Aphid [10]; [22]
  mortality at 1 mL or g/L: 70.6%
Aphid [10]; [23]
  mortality at 1 mL or g/L: 75%
Helicoverpa armigera [11]
  Total No. of dead insect at 72 Hrs.: 7.25
  % Mortality at 72 Hrs.: 72.50%
  % Corrected Mortality at 72 Hrs.: 72.50%
Spodoptera litura [12]
  Total No. of dead insect at 72 Hrs.: 6.00
Mealy Bug [13]
  Total No. of dead insect at 48 Hrs.: 6.00
  % Mortality at 48 Hrs.: 60.00%
  % Corrected Mortality at 48 Hrs.: 57.89%
Mite [14]
  % Mortality at 48 Hrs.: 52.50%
  Total No. of dead insect at 48 Hrs.: 52.50
  % Corrected Mortality at 48 Hrs.: 50.00%
Thrips [15]; [22]
  mortality at 1 mL or g/L: 25.7%
Thrips [15]; [23]
  mortality at 1 mL or g/L: 35%
Aphid [16]
  Total No. of dead insect at 48 Hrs.: 75.00
Alternaria alternata [17]
  % Disease reduction over Control: 66.12%
Mite [18]
  Total No. of dead insect at 48 Hrs.: 5.00
Mite [18]; 48 hrs
  % Corrected Mortality at 48 Hrs.: 45.95%

## CCCCCCCCCC(C)=O [Embodiment 2-undecanone, 2-undecanone]
Tomato seedlings
  Plant Height 5th Day: 6.48 cm
  Stem Girth 5th Day: 1.61 mm
  Plant Height 10th Day: 7.56 cm
  Stem Girth 10th Day: 2.40 mm
  Plant Height % Increase over pre on 10th Day: 40.52%
  Stem Girth % Increase over pre on 10th Day: 68.29%
  CCI 5th Day: 13.42
  CCI % Increase over pre on 10th Day: 30.95%
  Root Length (cm) 10th Day: 4.54 cm
  CCI 10th Day: 15.23
  Root Length % Increase over control: 36.48%
Chili seedlings
  CCI 5th Day: 13.57
  Plant Height (cm) 5th Day: 5.97 cm
  CCI % Increase over pre on 10th Day: 70.42%
  Plant Height % Increase over pre on 10th Day: 68.11%
  Root Lenght (cm) 10th Day: 4.44 cm
  Stem Girth % Increase over pre on 10th Day: 60.61%
  CCI 10th Day: 15.15
  Plant Height (cm) 10th Day: 6.59 cm
  Root Lenght % Increase over control: 62.21%
Helicoverpa armigera [1]
  % Mortality at 72 Hrs.: 52.50%
  % Corrected Mortality at 72 Hrs.: 52.50%
Alternaria alternata [2]
  Mean colony Diameter (mm): 52.00 mm
  inhibition of growth at 1 mL or g/L: 40.9%
Spodoptera litura [3]; [19]
  mortality at 1 mL or g/L: 36.8%
Spodoptera litura [3]; [20]
  mortality at 1 mL or g/L: 40%
Mealy Bug [4]
  % Mortality at 48 Hrs.: 57.50%
  Total No. of dead insect at 48 Hrs.: 57.50
  % Corrected Mortality at 48 Hrs.: 52.78%
Thrips [5]
  Total No. of dead insect at 48 Hrs.: 5.00
Spodoptera litura [6]
  % Mortality at 72 Hrs.: 42.50%
  % Corrected Mortality at 72 Hrs.: 39.47%
Thrips [7]
  % Mortality at 48 Hrs.: 47.50%
  Total No. of dead insect at 48 Hrs.: 47.50
  % Corrected Mortality at 48 Hrs.: 41.67%
[8]; [21]
  Antifungal Activity - Mode of action: Antifungal and repellent
  Bactericidal Activity - Mode of action: Moderate anti-bacterial
  Insecticidal Activities - Mode of action: Insecticidal action,
[8]
  Phytotonic Effect: Increasing root
Aphid [9]
  Total No. of dead insect at 48 Hrs.: 6.75
Aphid [9]; 48 hrs
  % Corrected Mortality at 48 Hrs.: 62.86%
Aphid [10]; [22]
  mortality at 1 mL or g/L: 61.8%
Aphid [10]; [23]
  mortality at 1 mL or g/L: 67.5%
Helicoverpa armigera [11]
  Total No. of dead insect at 72 Hrs.: 5.50
  % Mortality at 72 Hrs.: 55.00%
  % Corrected Mortality at 72 Hrs.: 55.00%
Spodoptera litura [12]
  Total No. of dead insect at 72 Hrs.: 4.00
Mealy Bug [13]
  Total No. of dead insect at 48 Hrs.: 5.50
  % Mortality at 48 Hrs.: 55.00%
  % Corrected Mortality at 48 Hrs.: 52.63%
Mite [14]
  % Mortality at 48 Hrs.: 27.50%
  Total No. of dead insect at 48 Hrs.: 27.50
  % Corrected Mortality at 48 Hrs.: 23.68%
Thrips [15]; [22]
  mortality at 1 mL or g/L: 42.9%
Thrips [15]; [23]
  mortality at 1 mL or g/L: 50%
Aphid [16]
  Total No. of dead insect at 48 Hrs.: 67.50
Alternaria alternata [17]
  % Disease reduction over Control: 58.68%
Mite [18]
  Total No. of dead insect at 48 Hrs.: 3.00
Mite [18]; 48 hrs
  % Corrected Mortality at 48 Hrs.: 24.32%
  % Mortality at 48 Hrs.: 30.00%
